Measured values taken from US7553867B2, “Furan or thiophene derivative and medicinal use thereof” (Takeda Pharmaceutical Company Limited, priority 2002, dated 2009).

target: T1, human GPR40 (Homo sapiens, UniProt O14842); assay: Receptor function regulating action (agonist action) for GPR40, intracellular calcium by FLIPR in CHO cells; assay type: cell-based; conditions: CHO cells expressing human GPR40; change of fluorescence intensity at 30 seconds after reaction initiation
T1 construct: expressed in transfected cells; host or cells: CHO cell strain (No. 104)
T1 sequence (O14842 whole entry): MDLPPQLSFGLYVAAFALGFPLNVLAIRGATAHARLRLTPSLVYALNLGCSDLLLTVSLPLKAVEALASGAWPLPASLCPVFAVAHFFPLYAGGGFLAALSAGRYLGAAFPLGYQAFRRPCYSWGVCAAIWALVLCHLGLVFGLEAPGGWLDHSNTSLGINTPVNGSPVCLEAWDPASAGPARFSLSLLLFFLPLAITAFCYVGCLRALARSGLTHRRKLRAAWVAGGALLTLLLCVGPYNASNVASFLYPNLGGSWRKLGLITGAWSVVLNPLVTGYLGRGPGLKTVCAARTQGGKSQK
Method: CHO cell strain (No. 104) which have had expressed human GPR40 was diluted to contain 3×10^4 cells/100 μL, and added to a Black walled 96-well plate (Costar) at 100 μL/well, and incubated overnight in CO2 incubator. Change of intracellular calcium concentration was measured with FLIPR (Molecular Device). The method is as follows. 50 μg of Fluo-3AM (DOJIN) was dissolved in 21 μL of DMSO (DOJIN), and the same amount of 20% pluronic acid (Molecular Probes) was further added thereto, and the mixture was mixed. The mixture was added to 10.6 mL of an assay buffer [prepared by adding 10 mL of solution which was produced by adding 20 mL of 1 M HEPES (pH 7.4) (DOJIN) to 1 L of HBSS (Invitrogen), dissolving 710 mg of probenecid (Sigma) in 5 mL of 1N NaOH, and further adding 5 mL of the above-mentioned HBSS/HEPES solution thereto and mixing it.] containing 105 μL of fetal bovine serum, to give a fluorescent dye solution. The medium of the cell plate was removed, and immediately, the fluorescent dye solution was added at 100 μL/well, and incubated in CO2 incubator for 1 hour, allowing the fluorescent dye to be incorporated into the cells. The cells after incubation were washed with the above-mentioned assay buffer. The compound to be added to the cells was diluted with the assay buffer to each concentration, added to the plate for the test sample. After conducting the above-mentioned pretreatment, intracellular calcium concentration change after adding the compound was measured in FLIPR to investigate the agonist action. By dose-response curve with the change of fluorescence intensity value at 30 seconds after reaction initiation, EC50 value was calculated.

| EC50 [nM] | SMILES |
| --- | --- |
| 100 | Cc1cc(OCc2cc(-c3ccc(F)cc3)oc2C)ccc1CCC(=O)O [Example 5(8), 3-(4-{[5-(4-Fluorophenyl)-2-methyl-3-furyl]methoxy}-2-methylphenyl)propionic acid] |
| 580 | CCCCc1oc(-c2ccc(C(F)(F)F)cc2)cc1COc1ccc(CCC(=O)O)c(C)c1 [Example 5(11), 3-[4-({2-Butyl-5-[4-(trifluoromethyl)phenyl]-3-furyl}methoxy)-2-methylphenyl]propionic acid] |
| 290 | Cc1oc(-c2ccc(C(F)(F)F)cc2)cc1COc1ccc(OCC(=O)O)cc1 [Example 6(7), [4-({2-Methyl-5-[4-(trifluoromethyl)phenyl]-3-furyl}methoxy)phenoxy]acetic acid] |
| 870 | Cc1cc(OCc2cc(-c3ccc(C(F)(F)F)cc3)oc2C(C)C)ccc1CCC(=O)O [Example 5(10), 3-[4-({2-Isopropyl-5-[4-(trifluoromethyl)phenyl]-3-furyl}methoxy)-2-methylphenyl]propionic acid] |
| 2000 | CCCCC/C=C\C/C=C\C/C=C\CCCCC(=O)O [γ-linolenic acid] |

test system: not given; assay: not given; conditions: not given

| melting point [°C] | SMILES |
| --- | --- |
| 123 to 125 | Cc1cc(OCc2cc(-c3ccc(F)cc3)oc2C)ccc1CCC(=O)O [Example 5(8), 3-(4-{[5-(4-Fluorophenyl)-2-methyl-3-furyl]methoxy}-2-methylphenyl)propionic acid] |
| 118 to 119 | CCCCc1oc(-c2ccc(C(F)(F)F)cc2)cc1COc1ccc(CCC(=O)O)c(C)c1 [Example 5(11), 3-[4-({2-Butyl-5-[4-(trifluoromethyl)phenyl]-3-furyl}methoxy)-2-methylphenyl]propionic acid] |
| 168 to 169 | Cc1oc(-c2ccc(C(F)(F)F)cc2)cc1COc1ccc(OCC(=O)O)cc1 [Example 6(7), [4-({2-Methyl-5-[4-(trifluoromethyl)phenyl]-3-furyl}methoxy)phenoxy]acetic acid] |
| 108 to 109 | Cc1cc(OCc2cc(-c3ccc(C(F)(F)F)cc3)oc2C(C)C)ccc1CCC(=O)O [Example 5(10), 3-[4-({2-Isopropyl-5-[4-(trifluoromethyl)phenyl]-3-furyl}methoxy)-2-methylphenyl]propionic acid] |
| 117 to 118 | Cc1oc(-c2ccc(C(F)(F)F)cc2)cc1/C=C\c1ccc(OC(C)(C)C(=O)O)cc1 [Example 22(2), 2-Methyl-2-[4-((Z)-2-{2-methyl-5-[4-(trifluoromethyl)phenyl]-3-furyl}ethenyl)phenoxy]propionic acid] |
| 143 to 145 | Cc1oc(-c2ccc(C(F)(F)F)cc2)cc1CCc1ncc(CC(=O)O)s1 [Example 13(1), [2-(2-{2-Methyl-5-[4-(trifluoromethyl)phenyl]-3-furyl}ethyl)-1,3-thiazol-5-yl]acetic acid] |
| 173 to 174 | O=C(O)CSCc1cccc(NC(=O)c2ccc(-c3ccc(Cl)cc3)o2)c1 [Example 2(3), [(3-{[5-(4-Chlorophenyl)-2-furoyl]amino}benzyl]thio]acetic acid] |
| 143 to 144 | Cc1oc(-c2ccc(Cl)cc2)cc1COc1cccc(CSC(C)(C)C(=O)O)c1 [Example 6(111), 2-[(3-{[5-(4-Chlorophenyl)-2-methyl-3-furyl]methoxy}benzyl)thio]-2-methylpropionic acid] |
| 139 to 140 | CCc1oc(-c2ccc(C(F)(F)F)cc2)cc1CCCOc1nn(CC(=O)O)c2ccccc12 [Example 6(100), [3-(3-{2-Ethyl-5-[4-(trifluoromethyl)phenyl]-3-furyl}propoxy)-1H-indazol-1-yl]acetic acid] |
| 128 to 129 | CCc1oc(-c2ccc(C(F)(F)F)cc2)cc1CCCOc1ccc(F)c(CC(=O)O)c1 [Example 6(47), [5-(3-{2-Ethyl-5-[4-(trifluoromethyl)phenyl]-3-furyl}propoxy)-2-fluorophenyl]acetic acid] |
| 139 to 140 | COc1cc(CC(=O)O)ccc1OCc1cc(-c2ccc(C(F)(F)F)cc2)oc1C [Example 6(81), [3-Methoxy-4-({2-methyl-5-[4-(trifluoromethyl)phenyl]-3-furyl}methoxy)phenyl]acetic acid] |
| 200 to 202 | Cc1oc(-c2ccc(OC(F)(F)F)cc2)cc1C(=O)Nc1cccc(CSCC(=O)O)c1 [Example 4(2)] |
| 128 to 129 | Cc1oc(-c2ccc(C(F)(F)F)cc2)cc1COc1cccc(-c2cccc(CC(=O)O)c2)c1 [Example 6(126), [3′-({2-Methyl-5-[4-(trifluoromethyl)phenyl]-3-furyl}methoxy)-1,1′-biphenyl-3-yl]acetic acid] |
| 174 to 176 | COc1cccc(-c2cc(CSc3nc(C)c(CC(=O)O)s3)c(C)o2)c1 [Example 6(53), [2-({[5-(3-Methoxyphenyl)-2-methyl-3-furyl]methyl}thio)-4-methyl-1,3-thiazol-5-yl]acetic acid] |
| 138 to 139 | CCc1oc(-c2ccc(C(F)(F)F)cc2)cc1CCCOc1ccc(OC)c(CC(=O)O)c1 [Example 6(39), [5-(3-{2-Ethyl-5-[4-(trifluoromethyl)phenyl]-3-furyl}propoxy)-2-methoxyphenyl]acetic acid] |
| 75 to 77 | Cc1oc(-c2ccc(C(F)(F)F)cc2)cc1COc1cccc(C(C)SC(C)(C)C(=O)O)c1 (stereo not shown) [Example 6(66), 2-Methyl-2-({1-[3-({2-methyl-5-[4-(trifluoromethyl)phenyl]-3-furyl}methoxy)phenyl]ethyl}thio)propionic acid] |

| melting point [°C] | SMILES |
| --- | --- |
| 121 to 122 | CCc1oc(-c2ccc(C(F)(F)F)cc2)cc1CCCOc1ccc(CC(=O)O)cc1 [Example 6(27), [4-(3-{2-Ethyl-5-[4-(trifluoromethyl)phenyl]-3-furyl}propoxy)phenyl]acetic acid] |
| 116 to 117 | Cc1oc(-c2cccc(F)c2)cc1COc1cccc(CSC(C)(C)C(=O)O)c1 [Example 6(112), 2-[(3-{[5-(3-Fluorophenyl)-2-methyl-3-furyl]methoxy}benzyl)thio]-2-methylpropionic acid] |
| 156 to 157 | Cc1oc(-c2ccc(C(F)(F)F)cc2)cc1COc1ccc2oc(CCC(=O)O)cc2c1 [Example 6(89), 3-[5-({2-Methyl-5-[4-(trifluoromethyl)phenyl]-3-furyl}methoxy)-1-benzofuran-2-yl]propionic acid] |
| 121 to 122 | Cc1oc(-c2ccc(C(F)(F)F)cc2)cc1COc1cccc(CSC2(C(=O)O)CCC2)c1 [Example 9(3), 1-{[3-({2-Methyl-5-[4-(trifluoromethyl)phenyl]-3-furyl}methoxy)benzyl]thio}cyclobutanecarboxylic acid] |
| 111 to 112 | CCc1oc(-c2ccc(C(F)(F)F)cc2)cc1CCCOc1ccc2sc(CC(=O)O)cc2c1 [Example 6(102), [5-(3-{2-Ethyl-5-[4-(trifluoromethyl)phenyl]-3-furyl}propoxy)-1-benzothien-2-yl]acetic acid] |
| 127 to 128 | Cc1oc(-c2ccc(C(F)(F)F)cc2)cc1COc1cccc(SC(C)(C)C(=O)O)c1 [Example 6(118), 2-Methyl-2-{[3-({2-methyl-5-[4-(trifluoromethyl)phenyl]-3-furyl}methoxy)phenyl]thio}propionic acid] |
| 125 to 127 | Cc1oc(-c2ccc(C(F)(F)F)cc2)cc1COc1ccc(CC(C)(C)C(=O)O)cc1 [Example 6(78), 2,2-Dimethyl-3-[4-({2-methyl-5-[4-(trifluoromethyl)phenyl]-3-furyl}methoxy)phenyl]propionic acid] |
| 96 to 97 | Cc1cc(OCc2cc(-c3ccc(C(F)(F)F)cc3)oc2C)ccc1CC(C)C(=O)O (stereo not shown) [Example 6(76), 2-Methyl-3-[2-methyl-4-({2-methyl-5-[4-(trifluoromethyl)phenyl]-3-furyl}methoxy)phenyl]propionic acid] |
| 92 to 93 | CCc1oc(-c2ccc(C(F)(F)F)cc2)cc1CCCOc1cccc(CC(=O)O)c1F [Example 6(97), [3-(3-{2-Ethyl-5-[4-(trifluoromethyl)phenyl]-3-furyl}propoxy)-2-fluorophenyl]acetic acid] |
| 130 to 131 | Cc1oc(-c2ccc(Cl)cc2)cc1COc1ccc(SC(C)(C)C(=O)O)cc1 [Example 6(114), 2-[(4-{[5-(4-Chlorophenyl)-2-methyl-3-furyl]methoxy}phenyl)thio]-2-methylpropionic acid] |
| 96 to 97 | CCCCc1oc(-c2ccc(C(F)(F)F)cc2)cc1CCCOc1ccc(CC(=O)O)cc1 [Example 6(16), [4-(3-{2-Butyl-5-[4-(trifluoromethyl)phenyl]-3-furyl}propoxy)phenyl]acetic acid] |
| 134 to 135 | Cc1oc(-c2ccc(C(F)(F)F)cc2)cc1COc1ccc(OC(C)(C)C(=O)O)cc1 [Example 6(5), 2-Methyl-2-[4-({2-methyl-5-[4-(trifluoromethyl)phenyl]-3-furyl}methoxy)phenoxy]propionic acid] |
| 91 to 93 | CCc1oc(-c2ccc(C(F)(F)F)cc2)cc1CCCOc1cc(CC(=O)O)ccc1F [Example 6(46), [3-(3-{2-Ethyl-5-[4-(trifluoromethyl)phenyl]-3-furyl}propoxy)-4-fluorophenyl]acetic acid] |
| 120 to 123 | Cc1oc(-c2ccc(C(F)(F)F)cc2)cc1COc1cc(CSC(C)(C)C(=O)O)ccc1F [Example 6(94), 2-{[4-Fluoro-3-({2-methyl-5-[4-(trifluoromethyl)phenyl]-3-furyl}methoxy)benzyl]thio}-2-methylpropionic acid] |
| 89 to 90 | Cc1oc(-c2ccc(F)cc2)cc1COc1cccc(C(C)SC(C)(C)C(=O)O)c1 (stereo not shown) [Example 6(65), 2-{[1-(3-{[5-(4-Fluorophenyl)-2-methyl-3-furyl]methoxy}phenyl)ethyl]thio}-2-methylpropionic acid] |
| 202 to 205 | Cc1nc(SCc2cc(-c3ccc(F)cc3)oc2C)sc1CC(=O)O [Example 6(18), [2-({[5-(4-Fluorophenyl)-2-methyl-3-furyl]methyl}thio)-4-methyl-1,3-thiazol-5-yl]acetic acid] |
